For assay [1], the target named is D(2) dopamine receptor (Rattus norvegicus, UniProt P61169).
Assay [2] deals with D(2) dopamine receptor (Oryctolagus cuniculus, UniProt G1T1Q0).

“And” between values parts separate entries of the source, which are not always exact repeats. Equal values may be shown once.

Chain of D(2) dopamine receptor (Oryctolagus cuniculus, UniProt G1T1Q0) (G1T1Q0 whole entry): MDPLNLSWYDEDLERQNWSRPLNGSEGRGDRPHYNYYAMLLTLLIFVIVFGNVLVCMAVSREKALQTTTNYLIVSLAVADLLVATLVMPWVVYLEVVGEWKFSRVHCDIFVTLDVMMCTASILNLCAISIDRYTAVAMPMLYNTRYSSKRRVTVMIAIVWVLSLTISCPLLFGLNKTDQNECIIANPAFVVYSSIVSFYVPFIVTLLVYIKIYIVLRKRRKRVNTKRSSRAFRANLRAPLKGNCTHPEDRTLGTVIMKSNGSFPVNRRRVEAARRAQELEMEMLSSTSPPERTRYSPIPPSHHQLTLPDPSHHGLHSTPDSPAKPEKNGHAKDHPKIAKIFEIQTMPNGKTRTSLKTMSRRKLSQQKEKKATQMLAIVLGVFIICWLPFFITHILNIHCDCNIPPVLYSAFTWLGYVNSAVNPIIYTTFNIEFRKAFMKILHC
Chain of D(2) dopamine receptor (Rattus norvegicus, UniProt P61169) (P61169 whole entry): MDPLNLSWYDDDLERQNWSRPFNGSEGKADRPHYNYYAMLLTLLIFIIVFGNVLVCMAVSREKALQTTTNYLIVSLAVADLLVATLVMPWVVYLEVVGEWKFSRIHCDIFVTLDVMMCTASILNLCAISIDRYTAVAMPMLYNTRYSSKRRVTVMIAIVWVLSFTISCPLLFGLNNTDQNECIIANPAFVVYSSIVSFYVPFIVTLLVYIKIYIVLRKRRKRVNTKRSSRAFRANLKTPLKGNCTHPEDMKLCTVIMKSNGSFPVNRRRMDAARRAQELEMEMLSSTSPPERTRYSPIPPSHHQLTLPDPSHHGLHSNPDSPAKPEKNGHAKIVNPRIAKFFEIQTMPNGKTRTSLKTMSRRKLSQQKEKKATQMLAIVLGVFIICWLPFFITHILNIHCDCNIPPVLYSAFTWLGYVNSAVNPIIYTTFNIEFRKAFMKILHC

For `CCCN(CCC)CCc1ccc(O)c(O)c1`, the Ki (usually a dissociation constant, usually derived from enzyme kinetics or from competition with a known ligand) on D(2) dopamine receptor [1] was 0.13 µM; at D(2) dopamine receptor [2], 0.037 µM and 0.085 µM. As to `O=c1[nH]c2ccccc2n1CCCN1CCC(n2c(=O)[nH]c3cc(Cl)ccc32)CC1`, on D(2) dopamine receptor [2], the Ki was 0.0033 µM and 0.0049 µM. On the same count and under the same terms, to `NCCc1ccc(O)c(O)c1` belongs 0.25 µM and 0.2 µM. Regarding `O=C(c1ccc(F)cc1)C1CCN(CCn2c(=O)[nH]c3ccccc3c2=O)CC1` [3-(2-{4-[(4-fluorophenyl)carbonyl]piperidin-1-yl}ethyl)-1,2,3,4-tetrahydroquinazoline-2,4-dione], the inhibition constant Ki on D(2) dopamine receptor [1] is 0.72 µM and 0.58 µM; at D(2) dopamine receptor [2], 0.88 µM. For the compound `Nc1nc2c(ncn2[C@@H]2O[C@H](COP(=O)(O)OP(=O)(O)OP(=O)(O)O)[C@@H](O)[C@H]2O)c(=O)[nH]1` [Dopamine+ (GTP+)], the Ki at D(2) dopamine receptor [1] is 1.3 µM and 2.9 µM.

Take `Cc1ccc(N(CC2=NCCN2)c2cccc(O)c2)cc1` [SMR000059054]: the Ki at D(2) dopamine receptor [1] was 1.5 µM and 0.75 µM; at D(2) dopamine receptor [2] it was 1.2 µM.
